The numbers were not newly measured in US12350279B2, “Nasal rinse compositions and methods” (Campbell Holding Company LLC, priority 2022, dated 2025), which cites them from elsewhere.

Some results are limits rather than exact numbers.

For data set [1], the system named is allergic asthma animal model.
The conditions of data set [2]: animal models.
Data set [3] concerns animal models of chronic asthma.

For `C=C(C)[C@@H]1CCC(C)=C[C@H]1c1c(O)cc(CCCCC)cc1O` [CBD, Cannabidiol], the “effect on inflammatory and remodeling process, airway hyperreactivity” value in data set [1] was “reduced the inflammatory and remodeling process with decreased airway hyperreactivity”. For the same compound, the “time to absorption after intranasal application” value in data set [2] was no more than 10 min. For the same compound, the effect on cytokines result in data set [3] is on record as “reduce relevant cytokines”.
